Settings: Liquid, Closed cell (Static) method

CCC [propane]
Settings | vapor or sublimation pressure [kPa]
263.3 K | 344
283.25 K | 639
291.22 K | 795
296.23 K | 906
308.21 K | 1221
323.19 K | 1715

From the NIST ThermoML archive (doi:10.1021/je800849s)
